# According to US12054509B2, “Antimicrobial compounds, compositions, and uses thereof” (Lakewood Amedex, Inc., priority 2017, dated 2024):
# What was measured:
# [1] = Pow (partition coefficient); assay type: physicochemical
# [2] = pH of 20 mg/mL (2%) aqueous solution; assay type: physicochemical; conditions: 20 mg/mL in DI water
# Experimental: pH studies are conducted to show the pH of Nu-8 compared to Bisphosphocin® compounds Nu-2, Nu-4, and Nu-5. 20 mg/mL Nu-2 solution is prepared by diluting 2 mL of 250 mg/mL Nu-2 solution with 23 mL DI water. 20 mg/mL Nu-4 and Nu-5 solutions are prepared in the same way. 401.65 mg Nu-8 is weighed in a 5 mL volumetric flask and diluted with DI water to volume. 20 mg/mL Nu-8 solution is prepared by diluting 5 mL of 80.3 mg/mL Nu-8 solution with 15 mL DI water. The pH values of 4 Nu-2, Nu-4, Nu-5, and Nu-8 at 20 mg/mL are measured with a calibrated pH meter. Also shown in TABLE 2 is a summary of other physical properties of the compound of Formula (I) and reference compounds Nu-2, Nu-4, and Nu-5.
# [3] = tested on: P. aeruginosa K2732; experiment: Bacterial cytological profiling (Example 6), P. aeruginosa; assay type: cell-based; conditions: for effect on cell envelope: BCP; for cell membrane permeability: buffered pH 4 or unbuffered LB;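 on effect on cell envelope: tested at 1 0.5 and 0.25 times MIC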
# Experimental: (§1) This bacterial cytological profiling (BCP) study uses methods and materials described previously by Nonejuie, P., Burkart, M., Poglianoa, K., Pogiano, J. (2013). Bacterial cytological profiling rapidly identifies the cellular pathways targeted by antibacterial molecules. Proc. Natl. Acad. Sci. U.S.A. 110(40):16169-16174. doi: 10.1073/pnas.1311066110.
# (§2) Wild type strains of E. coli ATCC 25922 or P. aeruginosa K2732 are grown in rich media (unbuffered 2× Lysogeny broth [LB]) at 30 C to an OD600˜0.4. These cultures are then split and each sample treated with the appropriate concentration of Nu-8 in unbuffered or buffered LB (final mixture OD600˜0.1). Cells exposed without Nu-8 are buffered to pH 4 with phosphoric acid.
# (§3) The BCP is performed in LB media buffered to pH 4. The minimum inhibitory concentration (MIC) is measured for Nu-3, Nu-4, Nu-5, and Nu-8 against each bacterial strain. As one of ordinary skill in the art understands, minimum inhibitory concentrations are the lowest concentration of an antimicrobial that will inhibit the visible growth of a microorganism after overnight incubation. […] Cellular viability is assayed at three time points (5 minutes and 4 and 24 h following the onset of treatment).
# (§4) For imaging E. coli, treated cells are stained with 1 μg/Ml FM4-64, 2 μg/mL DAPI, and 0.5 μM SYTOXGreen (Molecular Probes/Invitrogen). P. aeruginosa samples are stained 0.5 μM SYTOX Green, 28 μg/mL DAPI, and 4.5 μg/mL FM 4-64. Cells are transferred to an agarose pad (20% LB, 1% agarose) for imaging as described in Pogliano, J., Osborne, N., Sharp, M. D., Abanes-De Mello, A., Perez, A., Sun, Y.-L. and Pogliano, K. (1999), A vital stain for studying membrane dynamics in bacteria: a novel mechanism controlling septation during Bacillus subtilis sporulation. Molecular Microbiology, 31: 1149-1159. doi:10.1046/j.1365-2958.1999.01255.x.
# [4] = tested on: E. coli ATCC 25922; experiment: Bacterial cytological profiling (Example 6), E. coli; assay type: cell-based; conditions: for effect on cell envelope: BCP; for cell membrane permeability: buffered pH 4 or unbuffered LB; for DNA condensation: higher treatment concentrations, buffered pH 4; for cell wall deformations: unbuffered LB;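 on cell wall deformations: tested at 1 0.5 and 0.25 times MIC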;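 on effect on cell envelope: tested at 1 0.5 and 0.25 times MIC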
# Experimental: as §1, §2, §3, §4
# [5] = tested on: Escherichia coli (strain CFT073, TPPS 1041); experiment: Urinary tract infection model in BALB/c mice, initial efficacy (Example 10); assay type: in vivo; conditions: 50 mg/kg transurethral at 24 hr, 60 minutes post-treatment
# Description: Female BALB/c mice (20-22 g) ordered from Envigo are acclimated to housing conditions and handled in accordance with Animal Use Protocol (AUP) number TP-08. Animals are fed irradiated Teklad Global 29 18 Rodent Diet and water ad libitum. Mice are housed 6/cage in static cages with irradiated ⅛″ Teklad corn cobbedding 7902 inside bioBubble® clean rooms that provide H.E.P.A filtered air into the bubble environment at 100 complete air changes per hour. The environment is controlled to a temperature range of 74°±4° F. and a humidity range of 30-70%. All procedures carried out in this experiment are conducted in compliance with the laws, regulations, and guidelines of the National Institutes of Health and with the approval of the TransPharm Preclinical Solutions Animal Care and Use Committee.
# A clinical isolate of Escherichia coli (strain CFT073, TPPS 1041) are procured from the University of Michigan.
# The organism is grown overnight at 37° C. in ambient atmosphere on trypticase soy agar plates supplemented with 5% sheep blood cells. The culture is aseptically swabbed and transferred to tubes of trypticase soy broth. The optical density is determined at 600 nm. The culture is diluted to provide an inoculum of approximately 7.5 log10 CFU per mouse in a volume of 30 μL. Instillation of the bacterial challenge constituted time 0 hour for the study. Inoculum counts are estimated before inoculation by optical density and confirmed after inoculation by dilution and back counts.
# One hour prior to bacterial challenge, water is removed from animal cages. […]
# The primary endpoint used to assess progress of the infection is mean bacterial burden per gram of urinary bladder tissue. […] Colony forming units (CFU) are enumerated and the total bacterial burden per gram of urinary bladder tissue homogenate is calculated.
# The geometric mean CFU, along with standard error of the mean (SEM), are calculated using Microsoft Excel and bar charts are prepared for the data using GraphPad Prism v. […]
Compound,Pow [1],pH (2% solution) [2],effect on cell envelope [3],cell membrane permeability [3],effect on cell envelope [4],cell membrane permeability [4],DNA condensation [4],cell wall deformations [4],average bladder CFU burden [5]
COC1[C@@H](OP(=O)(O)OCCCCO)[C@@H](COP(=O)(O)OCCCCO)O[C@H]1n1ccc(=O)[nH]c1=O (stereo partly shown) [Nu-2],0.0407,0.99,–,–,–,–,–,–,–
CCCCOP(=O)(O)OC[C@H]1O[C@@H](n2cc(C)c(=O)[nH]c2=O)C[C@H]1OP(=O)(O)OCCCC [Nu-4],0.0592,0.94,affect the cell envelope,increase cell membrane permeability,affect the cell envelope,increase cell membrane permeability,causes DNA condensation,cause cell wall deformations,–
CCCCOP(=O)(O)OCCOCCOP(=O)(O)OCCCC [Nu-5],0.0480,0.93,affect the cell envelope,increase cell membrane permeability,affect the cell envelope,increase cell membrane permeability,causes DNA condensation,cause cell wall deformations,–
gentamicin [reference compound],–,–,–,–,–,–,–,–,6.1 log10 CFU
